Legend:
[1] = target: C-C chemokine receptor type 5 (Homo sapiens, UniProt P51681); experiment: Antagonist activity at CCR5 (unknown origin) expressed in HEK293 cells co-expressing Galpha16 assessed as inhibition of RANTES-induced calcium flux preincubated for 10 mins followed by RANTES addition by fluo-4AM-based fluorescence assay; assay type: functional, cell-based
[2] = Cytotoxicity against human TZM-bl cells after 48 hrs by MTT assay; assay type: cell-based
[3] = Cmax in Sprague-Dawley rat at 20 mg/kg, po by LC-MS/MS analysis; assay type: ADME, organism-based; parameters: dose 20 mg/kg, route oral; settings: in vivo
[4] = Tmax in Sprague-Dawley rat at 20 mg/kg, po by LC-MS/MS analysis; assay type: ADME, organism-based; settings: in vivo
[5] = Half life in Sprague-Dawley rat at 20 mg/kg, po by LC-MS/MS analysis; assay type: ADME, organism-based; settings: in vivo
[6] = AUC (0 to infinity) in Sprague-Dawley rat at 20 mg/kg, po by LC-MS/MS analysis; assay type: ADME, organism-based; parameters: dose 20 mg/kg, route oral, time infinity; settings: in vivo
[7] = MRT in Sprague-Dawley rat at 20 mg/kg, po by LC-MS/MS analysis; assay type: ADME, organism-based; settings: in vivo
[8] = Oral bioavailability in Sprague-Dawley rat at 20 mg/kg by LC-MS/MS analysis; assay type: ADME, organism-based; settings: in vivo
[9] = Cmax in Sprague-Dawley rat at 10 mg/kg, iv by LC-MS/MS analysis; assay type: ADME, organism-based; parameters: dose 10 mg/kg, route intravenous; settings: in vivo
[10] = Tmax in Sprague-Dawley rat at 10 mg/kg, iv by LC-MS/MS analysis; assay type: ADME, organism-based; settings: in vivo
[11] = Half life in Sprague-Dawley rat at 10 mg/kg, iv by LC-MS/MS analysis; assay type: ADME, organism-based; settings: in vivo
[12] = AUC (0 to infinity) in Sprague-Dawley rat at 10 mg/kg, iv by LC-MS/MS analysis; assay type: ADME, organism-based; parameters: dose 10 mg/kg, time infinity, route intravenous; settings: in vivo
[13] = MRT in Sprague-Dawley rat at 10 mg/kg, iv by LC-MS/MS analysis; assay type: ADME, organism-based; settings: in vivo
[14] = Clearance in Sprague-Dawley rat at 10 mg/kg, iv by LC-MS/MS analysis; assay type: ADME, organism-based; settings: in vivo
[15] = Cmax in dog at 15 mg/kg, po by LC-MS/MS analysis; assay type: ADME, organism-based, Canis lupus familiaris; parameters: dose 15 mg/kg, route oral; settings: in vivo
[16] = Tmax in dog at 15 mg/kg, po by LC-MS/MS analysis; assay type: ADME, organism-based, Canis lupus familiaris; settings: in vivo
[17] = Half life in dog at 15 mg/kg, po by LC-MS/MS analysis; assay type: ADME, organism-based, Canis lupus familiaris; settings: in vivo
[18] = AUC (0 to infinity) in dog at 15 mg/kg, po by LC-MS/MS analysis; assay type: ADME, organism-based, Canis lupus familiaris; parameters: dose 15 mg/kg, time infinity, route oral; settings: in vivo
[19] = MRT in dog at 15 mg/kg, po by LC-MS/MS analysis; assay type: ADME, organism-based, Canis lupus familiaris; settings: in vivo
[20] = Oral bioavailability in dog at 15 mg/kg by LC-MS/MS analysis; assay type: ADME, organism-based, Canis lupus familiaris; settings: in vivo
[21] = Half life in dog at 3 mg/kg, iv by LC-MS/MS analysis; assay type: ADME, organism-based, Canis lupus familiaris; settings: in vivo
[22] = AUC (0 to infinity) in dog at 3 mg/kg, iv by LC-MS/MS analysis; assay type: ADME, organism-based, Canis lupus familiaris; parameters: dose 3 mg/kg, route intravenous, time infinity; settings: in vivo
[23] = MRT in dog at 3 mg/kg, iv by LC-MS/MS analysis; assay type: ADME, organism-based, Canis lupus familiaris; settings: in vivo
[24] = Clearance in dog at 3 mg/kg, iv by LC-MS/MS analysis; assay type: ADME, organism-based, Canis lupus familiaris; settings: in vivo
[25] = target: Voltage-gated inwardly rectifying potassium channel KCNH2 (Homo sapiens, UniProt Q12809); experiment: Inhibition of human ERG expressed in CHO cells at holding potential of -80 mV after 60 secs by patch clamp assay; assay type: cell-based
Voltage-gated inwardly rectifying potassium channel KCNH2, sequence (Q12809 whole entry): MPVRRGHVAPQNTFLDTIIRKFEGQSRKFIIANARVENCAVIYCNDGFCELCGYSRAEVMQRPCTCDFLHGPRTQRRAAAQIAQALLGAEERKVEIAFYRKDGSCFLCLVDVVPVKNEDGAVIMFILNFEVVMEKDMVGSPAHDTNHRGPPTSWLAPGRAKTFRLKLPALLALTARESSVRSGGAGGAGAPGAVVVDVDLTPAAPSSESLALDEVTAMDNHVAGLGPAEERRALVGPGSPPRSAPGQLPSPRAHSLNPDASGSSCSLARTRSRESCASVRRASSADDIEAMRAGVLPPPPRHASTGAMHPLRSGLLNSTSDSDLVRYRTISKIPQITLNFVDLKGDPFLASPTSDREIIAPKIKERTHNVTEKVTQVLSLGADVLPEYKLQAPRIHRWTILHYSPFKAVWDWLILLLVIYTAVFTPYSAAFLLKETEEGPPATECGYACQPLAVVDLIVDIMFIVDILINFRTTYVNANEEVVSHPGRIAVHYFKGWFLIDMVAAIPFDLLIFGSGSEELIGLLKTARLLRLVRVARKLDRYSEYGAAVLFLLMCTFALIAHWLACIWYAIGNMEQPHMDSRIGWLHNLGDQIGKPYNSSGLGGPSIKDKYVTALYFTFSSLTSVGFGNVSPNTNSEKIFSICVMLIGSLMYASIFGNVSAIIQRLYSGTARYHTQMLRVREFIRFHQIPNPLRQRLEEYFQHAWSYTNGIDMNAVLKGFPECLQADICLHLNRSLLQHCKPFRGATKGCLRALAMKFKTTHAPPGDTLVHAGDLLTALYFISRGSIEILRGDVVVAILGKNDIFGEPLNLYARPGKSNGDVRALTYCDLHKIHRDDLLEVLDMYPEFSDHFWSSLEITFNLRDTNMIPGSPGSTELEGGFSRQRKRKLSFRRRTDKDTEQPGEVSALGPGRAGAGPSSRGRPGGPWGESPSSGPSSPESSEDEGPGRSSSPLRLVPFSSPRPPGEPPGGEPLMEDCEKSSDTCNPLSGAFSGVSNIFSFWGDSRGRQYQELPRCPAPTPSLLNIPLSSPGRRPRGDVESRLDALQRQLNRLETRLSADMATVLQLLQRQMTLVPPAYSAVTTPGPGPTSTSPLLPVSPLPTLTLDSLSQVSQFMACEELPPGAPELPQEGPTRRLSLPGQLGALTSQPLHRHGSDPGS

Cytochrome P450 1A2 = target: T1, Cytochrome P450 1A2 (Homo sapiens, UniProt P05177); experiment: Inhibition of CYP1A2 (unknown origin); assay type: ADME
T1 sequence (P05177 whole entry): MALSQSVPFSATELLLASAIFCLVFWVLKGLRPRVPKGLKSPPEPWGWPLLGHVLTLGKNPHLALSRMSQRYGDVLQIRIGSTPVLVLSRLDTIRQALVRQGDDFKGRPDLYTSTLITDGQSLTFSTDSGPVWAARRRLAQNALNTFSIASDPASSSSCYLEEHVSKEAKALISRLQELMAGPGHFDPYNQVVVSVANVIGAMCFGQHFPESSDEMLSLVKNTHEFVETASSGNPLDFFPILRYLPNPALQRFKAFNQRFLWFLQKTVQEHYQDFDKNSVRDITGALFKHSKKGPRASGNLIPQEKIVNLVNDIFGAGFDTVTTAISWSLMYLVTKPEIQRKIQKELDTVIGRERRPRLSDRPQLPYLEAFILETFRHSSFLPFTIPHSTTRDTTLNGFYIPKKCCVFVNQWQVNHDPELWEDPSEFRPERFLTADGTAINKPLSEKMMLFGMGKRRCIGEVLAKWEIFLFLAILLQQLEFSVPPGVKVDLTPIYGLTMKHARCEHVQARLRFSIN

Cytochrome P450 2C9 = Cytochrome P450 2C9 (Homo sapiens, UniProt P11712); experiment: Inhibition of CYP2C9 (unknown origin); assay type: ADME
Cytochrome P450 2C9, sequence (P11712 whole entry): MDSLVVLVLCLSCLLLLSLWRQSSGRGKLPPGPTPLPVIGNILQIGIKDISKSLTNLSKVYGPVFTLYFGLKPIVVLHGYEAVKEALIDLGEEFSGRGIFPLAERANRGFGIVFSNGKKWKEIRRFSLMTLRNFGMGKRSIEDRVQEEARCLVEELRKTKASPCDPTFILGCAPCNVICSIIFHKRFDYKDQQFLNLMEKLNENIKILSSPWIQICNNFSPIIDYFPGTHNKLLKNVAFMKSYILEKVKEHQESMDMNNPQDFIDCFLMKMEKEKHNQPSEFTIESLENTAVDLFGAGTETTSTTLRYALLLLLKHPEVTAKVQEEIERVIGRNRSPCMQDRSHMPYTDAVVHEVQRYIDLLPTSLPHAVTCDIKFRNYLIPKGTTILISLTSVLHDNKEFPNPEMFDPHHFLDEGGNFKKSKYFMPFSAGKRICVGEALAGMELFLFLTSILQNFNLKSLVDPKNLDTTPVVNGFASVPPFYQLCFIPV

Cytochrome P450 2C19 = Cytochrome P450 2C19 (Homo sapiens, UniProt P33261); experiment: Inhibition of CYP2C19 (unknown origin); assay type: ADME
Cytochrome P450 2C19, sequence (P33261 whole entry): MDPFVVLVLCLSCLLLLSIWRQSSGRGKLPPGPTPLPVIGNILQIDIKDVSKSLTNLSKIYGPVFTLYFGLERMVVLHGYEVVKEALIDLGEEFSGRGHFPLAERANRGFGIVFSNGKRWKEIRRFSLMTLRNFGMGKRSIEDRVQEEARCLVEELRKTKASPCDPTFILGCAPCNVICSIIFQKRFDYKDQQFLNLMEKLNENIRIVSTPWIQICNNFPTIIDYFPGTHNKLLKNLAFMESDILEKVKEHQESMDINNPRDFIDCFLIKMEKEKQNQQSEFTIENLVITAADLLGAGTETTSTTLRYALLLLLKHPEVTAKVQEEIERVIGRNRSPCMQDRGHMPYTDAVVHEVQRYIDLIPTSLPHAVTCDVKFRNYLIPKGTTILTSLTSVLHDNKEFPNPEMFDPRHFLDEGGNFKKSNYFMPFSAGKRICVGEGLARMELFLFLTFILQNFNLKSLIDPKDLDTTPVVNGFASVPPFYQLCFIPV

Cytochrome P450 2D6 = Cytochrome P450 2D6 (Homo sapiens, UniProt P10635); experiment: Inhibition of CYP2D6 (unknown origin); assay type: ADME
Cytochrome P450 2D6, sequence (P10635 whole entry): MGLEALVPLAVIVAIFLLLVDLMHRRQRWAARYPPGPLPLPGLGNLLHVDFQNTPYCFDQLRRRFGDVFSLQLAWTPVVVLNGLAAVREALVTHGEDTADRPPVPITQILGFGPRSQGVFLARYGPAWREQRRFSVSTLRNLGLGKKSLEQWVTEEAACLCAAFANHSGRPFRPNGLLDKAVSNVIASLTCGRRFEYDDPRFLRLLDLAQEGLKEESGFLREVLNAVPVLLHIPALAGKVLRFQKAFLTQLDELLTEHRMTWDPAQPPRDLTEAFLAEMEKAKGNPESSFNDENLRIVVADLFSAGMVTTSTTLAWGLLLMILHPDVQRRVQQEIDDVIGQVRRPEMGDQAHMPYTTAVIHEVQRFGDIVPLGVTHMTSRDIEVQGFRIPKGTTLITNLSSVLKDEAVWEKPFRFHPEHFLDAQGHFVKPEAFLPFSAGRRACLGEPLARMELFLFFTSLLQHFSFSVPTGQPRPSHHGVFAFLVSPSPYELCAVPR

Cytochrome P450 3A4 [26] = target: T2, Cytochrome P450 3A4 (Homo sapiens, UniProt P08684); experiment: Inhibition of CYP3A4 (unknown origin) using midazolam as substrate; assay type: ADME
T2 sequence (P08684 whole entry): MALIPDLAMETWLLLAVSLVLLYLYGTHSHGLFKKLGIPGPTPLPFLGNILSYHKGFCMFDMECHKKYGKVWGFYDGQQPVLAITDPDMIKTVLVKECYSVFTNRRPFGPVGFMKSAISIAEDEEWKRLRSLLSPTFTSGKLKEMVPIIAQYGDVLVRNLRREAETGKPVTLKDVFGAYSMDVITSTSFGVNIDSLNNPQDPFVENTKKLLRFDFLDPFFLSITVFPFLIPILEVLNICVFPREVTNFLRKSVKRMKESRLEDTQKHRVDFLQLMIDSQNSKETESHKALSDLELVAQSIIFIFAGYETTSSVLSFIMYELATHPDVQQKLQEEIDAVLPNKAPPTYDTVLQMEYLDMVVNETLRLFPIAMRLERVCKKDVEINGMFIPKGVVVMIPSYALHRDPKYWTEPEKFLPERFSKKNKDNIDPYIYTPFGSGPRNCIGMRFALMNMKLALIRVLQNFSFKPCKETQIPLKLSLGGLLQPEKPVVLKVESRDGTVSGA

Cytochrome P450 3A4 [27] = target: T2, Cytochrome P450 3A4; experiment: Inhibition of CYP3A4 (unknown origin) using testosterone as substrate; assay type: ADME
in vitro [28] = settings: human, TZM-bl cells
Description: Therapeutic index, ratio of CC50 for human TZM-bl cells to EC50 for CCR5-dependent HIV1 SF162 infected in human TZM-bl cells

in vitro [29] = settings: human, PBMC
Description: Therapeutic index, ratio of CC50 for human PBMC to IC50 for CCR5-dependent HIV1 SF162 infected in human PBMC cells

in vitro [30] = settings: human, HOS cells
Description: Therapeutic index, ratio of CC50 for human HOS cells to IC50 for CCR5-dependent HIV1 SF162 infected in human HOS cells

in vitro [31] = settings: human, PBMC; remark: listed apart in the source
Description: Therapeutic index, ratio of CC50 for human PBMC to IC50 for CCR5-dependent HIV1 KM018 infected in human PBMC

in vitro [32] = settings: human, PBMC; remark: listed apart in the source
Description: Therapeutic index, ratio of CC50 for human PBMC to IC50 for CCR5-dependent HIV1 Ba-L infected in human PBMC

in vitro [33] = settings: human, HOS cells; remark: listed apart in the source
Description: Therapeutic index, ratio of CC50 for human HOS cells to IC50 for CCR5-dependent HIV1 Ba-L infected in human HOS cells

in vitro [34] = settings: human, PM1 cells
Description: Therapeutic index, ratio of CC50 for human PM1 cells to IC50 for CCR5-dependent HIV1 Ba-L infected in human PM1 cells

[35] = system: Human immunodeficiency virus 1; experiment: microbe, parasite or virus in culture; settings: Human immunodeficiency virus 1, SF162, TZM-bl, 48 h
Description: Antiviral activity against CCR5-dependent HIV1 SF162 infected in human TZM-bl cells assessed as reduction in virus infection measured after 48 hrs post infection by luciferase reporter gene assay

[36] = system: Human immunodeficiency virus 1; experiment: microbe, parasite or virus in culture; settings: Human immunodeficiency virus 1, SF162, PBMC, 168 h
Description: Antiviral activity against CCR5-dependent HIV1 SF162 infected in human PBMC assessed as reduction in virus infection measured after 7 days by luciferase reporter gene assay

[37] = system: Human immunodeficiency virus 1; experiment: microbe, parasite or virus in culture; settings: Human immunodeficiency virus 1, SF162, HOS, 120 h
Description: Antiviral activity against CCR5-dependent HIV1 SF162 infected in human HOS cells assessed as reduction in virus infection measured after 5 days by luciferase reporter gene assay

[38] = system: Human immunodeficiency virus 1; experiment: microbe, parasite or virus in culture; settings: Human immunodeficiency virus 1, KM018, PBMC, 168 h
Description: Antiviral activity against CCR5-dependent HIV1 KM018 infected in human PBMC assessed as reduction in virus infection measured after 7 days by luciferase reporter gene assay

[39] = system: Human immunodeficiency virus 1; experiment: microbe, parasite or virus in culture; settings: Human immunodeficiency virus 1, Ba-L, PBMC, 168 h
Description: Antiviral activity against CCR5-dependent HIV1 Ba-L infected in human PBMC assessed as reduction in virus infection measured 7 days by luciferase reporter gene assay

[40] = system: Human immunodeficiency virus 1; experiment: microbe, parasite or virus in culture; settings: Human immunodeficiency virus 1, Ba-L, HOS, 120 h
Description: Antiviral activity against CCR5-dependent HIV1 Ba-L infected in human HOS cells assessed as reduction in virus infection measured after 5 days by luciferase reporter gene assay

[41] = system: Human immunodeficiency virus 1; experiment: microbe, parasite or virus in culture; settings: Human immunodeficiency virus 1, Ba-L, PM1, 120 h
Description: Antiviral activity against CCR5-dependent HIV1 Ba-L infected in human PM1 cells assessed as reduction in virus infection measured after 5 days by luciferase reporter gene assay

C-C chemokine receptor type 5, sequence (P51681 whole entry): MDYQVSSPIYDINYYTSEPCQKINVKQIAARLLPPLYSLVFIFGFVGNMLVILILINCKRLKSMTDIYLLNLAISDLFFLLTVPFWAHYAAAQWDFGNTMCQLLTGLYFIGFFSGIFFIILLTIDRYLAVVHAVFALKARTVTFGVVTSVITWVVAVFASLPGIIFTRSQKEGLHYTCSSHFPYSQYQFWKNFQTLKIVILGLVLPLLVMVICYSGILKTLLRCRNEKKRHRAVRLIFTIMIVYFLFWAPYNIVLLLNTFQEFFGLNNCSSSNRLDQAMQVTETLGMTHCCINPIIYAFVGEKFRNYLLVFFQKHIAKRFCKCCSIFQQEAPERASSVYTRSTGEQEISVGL

SMILES: Cc1nnc(C(C)C)n1[C@@H]1C[C@H]2CC[C@@H](C1)N2CC[C@H](NC(=O)C1CCCC1)c1cccs1
- IC50 [1]: 3.1 nM
- CC50 at 48 h [2]: > 200000 nM
- Cmax [3]: 436 ng/mL
- Tmax [4]: 2 h
- half-life [5]: 1.65 h
- AUC(0-inf) [6]: 1670 ng·h/mL
- MRT [7]: 3.02 h
- bioavailability [8]: 33.4%
- Cmax [9]: 2220 ng/mL
- Tmax [10]: 0.25 h
- half-life [11]: 1.31 h
- AUC(0-inf) [12]: 2500 ng·h/mL
- MRT [13]: 0.91 h
- clearance [14]: 66.5 mL/min/kg
- Cmax [15]: 1160 ng/mL
- Tmax [16]: 0.8 h
- half-life [17]: 2.5 h
- AUC(0-inf) [18]: 2160 ng·h/mL
- MRT [19]: 2.4 h
- bioavailability [20]: 38.1%
- half-life [21]: 0.9 h
- AUC(0-inf) [22]: 1100 ng·h/mL
- MRT [23]: 0.7 h
- clearance [24]: 46.7 mL/min/kg
- IC50 [25]: 1520 nM
- IC50 (Cytochrome P450 1A2): > 25000 nM
- IC50 (Cytochrome P450 2C9): > 25000 nM
- IC50 (Cytochrome P450 2C19): > 25000 nM
- IC50 (Cytochrome P450 2D6): 16800 nM
- IC50 (Cytochrome P450 3A4 [26]): > 25000 nM
- IC50 (Cytochrome P450 3A4 [27]): > 25000 nM
- selectivity ratio (in vitro [28]): > 150000
- selectivity ratio (in vitro [29]): 6100
- selectivity ratio (in vitro [30]): 25000
- selectivity ratio (in vitro [31]): 4000
- selectivity ratio (in vitro [32]): 5900
- selectivity ratio (in vitro [33]): 330000
- selectivity ratio (in vitro [34]): 220000
- IC50 [35]: 1.3 nM
- IC50 [36]: 123 nM
- IC50 [37]: 21 nM
- IC50 [38]: 190 nM
- IC50 [39]: 127 nM
- IC50 [40]: 1.6 nM
- IC50 [41]: 3.4 nM

SMILES: Cc1nnc(C(C)C)n1[C@@H]1C[C@H]2CC[C@@H](C1)N2CC[C@H](NC(=O)C1CCCCC1)c1cccs1
- IC50 [1]: 2.3 nM
- CC50 at 48 h [2]: > 200000 nM
- Cmax [3]: 631 ng/mL
- Tmax [4]: 0.25 h
- half-life [5]: 1.16 h
- AUC(0-inf) [6]: 1510 ng·h/mL
- MRT [7]: 2.1 h
- bioavailability [8]: 14.8%
- Cmax [9]: 4320 ng/mL
- Tmax [10]: 0.25 h
- half-life [11]: 0.31 h
- AUC(0-inf) [12]: 5110 ng·h/mL
- MRT [13]: 0.8 h
- clearance [14]: 32.7 mL/min/kg
- IC50 [25]: 2060 nM
- IC50 (Cytochrome P450 1A2): > 25000 nM
- IC50 (Cytochrome P450 2C9): > 25000 nM
- IC50 (Cytochrome P450 2C19): > 25000 nM
- IC50 (Cytochrome P450 2D6): 15100 nM
- IC50 (Cytochrome P450 3A4 [26]): 12300 nM
- IC50 (Cytochrome P450 3A4 [27]): 21700 nM
- selectivity ratio (in vitro [28]): > 18000
- selectivity ratio (in vitro [29]): 509
- selectivity ratio (in vitro [30]): 7800
- selectivity ratio (in vitro [31]): 529
- selectivity ratio (in vitro [32]): 575
- selectivity ratio (in vitro [33]): 27000
- selectivity ratio (in vitro [34]): 44000
- IC50 [35]: 11.1 nM
- IC50 [36]: 524 nM
- IC50 [37]: 43.7 nM
- IC50 [38]: 504 nM
- IC50 [39]: 464 nM
- IC50 [40]: 12.5 nM
- IC50 [41]: 8.2 nM

SMILES: Cc1ccc([C@H](CCN2[C@@H]3CC[C@H]2C[C@H](n2c(C)nnc2C(C)C)C3)NC(=O)C2CCC(F)(F)CC2)s1
- IC50 [1]: 2.8 nM
- CC50 at 48 h [2]: > 200000 nM
- Cmax [3]: 580 ng/mL
- Tmax [4]: 2 h
- half-life [5]: 32.8 h
- AUC(0-inf) [6]: 1870 ng·h/mL
- MRT [7]: 4.8 h
- bioavailability [8]: 40.1%
- Cmax [9]: 1690 ng/mL
- Tmax [10]: 0.25 h
- half-life [11]: 1.6 h
- AUC(0-inf) [12]: 2330 ng·h/mL
- MRT [13]: 2.3 h
- clearance [14]: 71.7 mL/min/kg
- IC50 [25]: 3380 nM
- IC50 (Cytochrome P450 1A2): > 25000 nM
- IC50 (Cytochrome P450 2C9): > 25000 nM
- IC50 (Cytochrome P450 2C19): > 25000 nM
- IC50 (Cytochrome P450 2D6): > 25000 nM
- IC50 (Cytochrome P450 3A4 [26]): 10900 nM
- IC50 (Cytochrome P450 3A4 [27]): 23400 nM
- selectivity ratio (in vitro [28]): > 17000
- selectivity ratio (in vitro [29]): > 29000
- selectivity ratio (in vitro [30]): > 11000
- selectivity ratio (in vitro [31]): > 1600
- selectivity ratio (in vitro [32]): > 833
- selectivity ratio (in vitro [33]): > 18000
- selectivity ratio (in vitro [34]): > 13000
- IC50 [35]: 11.5 nM
- IC50 [36]: 6.7 nM
- IC50 [37]: 18.8 nM
- IC50 [38]: 126 nM
- IC50 [39]: 240 nM
- IC50 [40]: 11.4 nM
- IC50 [41]: 14.9 nM

— ChEMBL document CHEMBL4229569, “Structure-Based Design of 1-Heteroaryl-1,3-propanediamine Derivatives as a Novel Series of CC-Chemokine Receptor 5 Antagonists” (J Med Chem, 2018)
